Test results reported in paper PMC10718076, “1,2-Disubstituted bicyclo[2.1.1]hexanes as saturated bioisosteres of ortho-substituted benzene” (Chemical Science, 2023).
≈ marks a conversion by molar mass, not a printed value. Like-named read-outs stand apart in the source and are kept apart here.

What was measured:
[1] = Kinetic solubility in phosphate-buffered saline, pH 7.4; format: physicochemical; conditions: 25 °C, kinetic from dmso stock, phosphate-buffered saline; for solubility kinetic at 2 h: aqueous buffer, pH 7.4, read-out: Sol.: experimental kinetic solubility; for solubility at 2 h: pH 7.4, aqueous buffer
Protocol: Analysis of Aqueous Solubility […]
compound (Ondansetron) were assessed for kinetic solubility in phosphate -buffered saline, pH 7.4.
Phosphate buffered saline, pH 7.4 (Sigma -Aldrich, USA; Cat #P3813) […]
MultiScreen HTS 96 Well Filter Plates (Millipore, Ireland; Cat # MSSLBPC10) […]
Matrix Multichannel Electronic Pipette 2-125 μL, 5-250 μL, 15-1250 μL (Thermo Scientific, USA; […]
Vacuum pump (Millipore, USA; Model # XX5500000)
The measurements were performed using SpectraMax Plus reader in UV -Vis mode. Acquisition and […]
The measurements were performed using SpectraMax Paradigm reader in UV-Vis mode.
Acquisition and analysis of the data were performed using SoftMax Pro v.5.4 (Molecular Devices) […]
Kinetic solubility assay was performed according to the Enamine’s aqueous solubility SOP. Briefly, using a 20 mM stock solution of the compound in 100% DMSO dilutions were prepared to a theoretical concentration of 400 μM in duplicates in phosphate-buffered saline pH 7.4 […]
compound dilutions in PBS were further allowed to equilibrate at 25 °C on a thermostatic shaker for two hours and then filtered through HTS filter plates using a vacuum manifold. The filtrates of test compounds were diluted 2-fold with acetonitrile with 2% DMSO before measuring.
In parallel, compound dilutions in 50% acetonitrile/PBS were prepared to theoretical concentrations […]
calibration curves. Ondansetron was used as reference compound to control proper assay performance. 200 μl of each sample was transferred to 96-well plate and measured in 230-550 nm range with 5 nm step. The effective range of this assay is approximately 2-400 μM and the […]
The concentrations of compounds in PBS filtrate are calculated using a dedicated Microsoft Excel calculation script. Proper absorbance wavelengths for calculations are selected for each compound manually based on absorbance maximums (absolute absorbance unit values for the minimum and maximum concentration points within the 0 – 3 OD range). Each final dataset is visually evaluated by the operator, and goodness of fit (R2) is calculated for each calibration curve. […]
samples were diluted 2-fold with acetonitrile containing internal standard and were analyzed using the HPLC system coupled with a tandem mass spectrometer. The effective range of this assay is […]

[2] = system: Aspergillus niger (strain VURV-F 822); assay: Antifungal disk diffusion method; format: cell-based; conditions: for zone of inhibition at 4 µg/mL: Concentration 0.004 mg/mL, Boscalid, Bixafen marked st; for zone of inhibition at 4 µg/mL / zone of inhibition at 8 µg/mL / zone of inhibition at 16 µg/mL / zone of inhibition at 30 µg/mL / zone of inhibition at 60 µg/mL: 0 = absence of antifungal activity; for zone of inhibition at 4 µg/mL / zone of inhibition at 60 µg/mL: Fluxapyroxad; for zone of inhibition at 4 µg/mL / zone of inhibition at 8 µg/mL / zone of inhibition at 16 µg/mL / zone of inhibition at 30 µg/mL / zone of inhibition at 60 µg/mL / zone of inhibition at 120 µg/mL / zone of inhibition at 250 µg/mL / zone of inhibition at 500 µg/mL / zone of inhibition at 1000 µg/mL / zone of inhibition at 2000 µg/mL: read-out: Diameter of inhibition zone; for zone of inhibition at 8 µg/mL: Concentration 0.008 mg/mL; for zone of inhibition at 16 µg/mL: Concentration 0.016 mg/mL; for zone of inhibition at 30 µg/mL: Concentration 0.03 mg/mL; for zone of inhibition at 30 µg/mL / zone of inhibition at 60 µg/mL: (±)-29 marked st; for zone of inhibition at 60 µg/mL: Concentration 0.06 mg/mL, Bixafen; for zone of inhibition at 120 µg/mL: Concentration 0.12 mg/mL, (±)-28 marked st (static growth); for zone of inhibition at 250 µg/mL: Concentration 0.25 mg/mL, (±)-28 marked st (static growth, secondary growth of mycelium); for zone of inhibition at 500 µg/mL: Concentration 0.5 mg/mL; for zone of inhibition at 500 µg/mL / zone of inhibition at 1000 µg/mL / zone of inhibition at 2000 µg/mL: 10 μl per disk; for zone of inhibition at 1000 µg/mL: Concentration 1 mg/mL; for zone of inhibition at 2000 µg/mL: Concentration 2 mg/mL
Protocol: Antifungal activity of the synthetic compounds using disk diffusion methods The compounds were tested for plant pathogens Aspergillus niger (strain VURV-F 822), which was received from Culture collection of microorganisms of Crop Research Institute (Prague, Czech […]
The synthetic compounds' antifungal activity was evaluated using a disk diffusion assay for testing filamentous fungi (CLSI M51-A) and broth microdilution antifungal susceptibility testing (EUCAST E.DEF 7.3.1; CLSI M38-A2)
[CLSI M51-A. Method for Antifungal Disk Diffusion Susceptibility Testing of Nondermatophyte Filamentous Fungi; Approved Guideline.CLSI document M51-A. Wayne, PA:
Clinical and Laboratory Standards Institute; 2010. This method is standardized for Altenaria, Aspergillus, Bipolaris, Fusarium, order Mucorales, etc.]
[CLSI M38-A2. 2008. Reference method for broth dilution antifungal susceptibility testing of filamentous fungi, 2nd ed Approved standard M38 -A2 Clinical and Laboratory Standards Institute, […]
Antifungal disk diffusion method
The solutions of fungicides and their analogues were diluted in dimethyl sulfoxide (DMSO) to […]
mg/mL for each test component. Sterile paper disks (ASPECT, Ukraine) were soaked with 10 μl of a solution of the appropriate fungicide from the highest concentration to the lowest.
The fungal strains were cultured on Petri dishes with Saburo dextrose agar (Condalab, Spain) and incubated at 25 °C for 5 days. Sterile Dulbecco's phosphate -buffered saline (DPBS) with 0,1 % Tween 20 was used to cover colonies of fungus for obtained conidia l suspension. Suspension of conidia was adjusted to inoculums 2×10^5 conidia/mL by sterile DPBS.
For antifungal disk diffusion test we used square Petri dishes (FALCON A Corning Brand, USA). The conidial suspension (0.5 mL) was added to Petri dishes with Saburo dextrose agar. The suspension was evenly distributed over the surface of the nutrient medium with a glass spatula.
After the surface of the inoculated medium was dry, the disks with different concentrations of testing compounds were added to the Petri dishes. Each compound was tested in triplicate at different concentrations. Growth control was a disk with 10 μl of DMSO, which was used for test […]
Petri dishes incubated at 25 °C for 72 h. The test compounds at known concentrati on into contact with an inoculated medium then exert a growth-inhibiting effect then a clear zone (the zone of […]
inhibition) appears around the test product. The diameter of a clear zone around the well is […]
If the fungal strain is susceptible to the antifungal agent, then a zone of inhibition appears on the agar plate. If it is resistant to the test compound, then no zone is evident. The size of the zone of inhibition is usually related to the level of antifungal activity present in the compound – a larger […]
The growth rate of all strains for each concentration of test compounds was determined visually and compared with the growth of control.
Broth microdilution antifungal susceptibility testing
A 96-well CELLSTAR plate (sterile, flat-bottomed, polystyrene, transparent) was used to determine MIC by broth microdilution method. Also, dabble straight RPMI-1640 medium with 2% glucose (2x RPMI 2%G) was used for this method. Spore suspension for plate inoculation was prepared according to the method described above for the disc diffusion method.
The each well in the plate contained 49 μl of medium (2x RPMI 2%G), 50 μl of inoculum (prepared in DPBS) and 1 μl of the stock solution of the test substance. Positive control wells contained 50 μl medium and 50 μl inoculum, and sterile control wells contained 50 μl medium and […]
To determine the MIC by the microdilution method, a series of stock solutions of fungicides and their analogues in DMSO with the following concentrations were prepared: 3.2 mg/mL, 1.6 mg/mL, […]
1 μl of the stock solutions of the test substances were added to each well to obtain the following […]
Immediately after adding all the components to the plates, the optical density was measured at […]

[3] = Metabolic stability in human liver microsomes; conditions: both; for remaining at 40 min, 2 µM: Mean of 2, 40 min; for remaining at 25 min, 2 µM: Mean of 2, 25 min
[4] = Table S5, injection 1, octanol/PBS pH 7.4
[5] = Table S5, injection 2, octanol/PBS pH 7.4
[6] = Table S5, injection 3, octanol/PBS pH 7.4
[7] = human liver microsomes (pooled), pH 7.4
[8] = human liver microsomes (pooled), pH 7.4, % Remaining, Table S9, 4st batch
[9] = Table S2, 2st batch, read-out: PBS solubility, pH 7.4, Incubation 1
[10] = Table S2, 2st batch, read-out: PBS solubility, pH 7.4, Incubation 2
[11] = Table S2, 2st batch, read-out: PBS solubility, pH 7.4, Mean
[12] = liver microsomes (pooled), pH 7.4, % Remaining without cofactor, no NADPH cofactor, Table S6, 1st batch
[13] = liver microsomes (pooled), pH 7.4, % Remaining, Mean of 2, 7 min, Table S6, 1st batch
[14] = liver microsomes (pooled), pH 7.4, % Remaining, Mean of 2, 15 min, Table S6, 1st batch
[15] = liver microsomes (pooled), pH 7.4, % Remaining, Table S6, 1st batch
[16] = liver microsomes (pooled), pH 7.4, kel, Table S6, 1st batch
[17] = liver microsomes (pooled), pH 7.4, t1/2, Table S6, 1st batch

Row | solubility kinetic at 2 h [1] | D [4] | D [5] | D [6] | microsomal CLint at 2 μM [3, 7] | solubility at 2 h [1, 9] | solubility at 2 h [1, 10] | solubility at 2 h [1, 11] | remaining at 40 min, 2 µM [3, 12] | remaining at […], 2 µM [3, 13] | SMILES | zone of inhibition at 4 µg/mL [2] | zone of inhibition at 8 µg/mL [2] | zone of inhibition at 16 µg/mL [2] | zone of inhibition at 30 µg/mL [2] | zone of inhibition at 60 µg/mL [2] | zone of inhibition at 120 µg/mL [2] | zone of inhibition at 250 µg/mL [2] | zone of inhibition at 500 µg/mL [2] | zone of inhibition at 1000 µg/mL [2] | zone of inhibition at 2000 µg/mL [2] | other results
1 | 30 µM (≈ 12.4 µg/mL) | 1.23E+04 | 1.53E+04 | 2.30E+04 | ~10 µL/min/mg |  |  |  |  |  | Cn1cc(C(=O)Nc2ccc(F)cc2-c2ccc(Cl)c(Cl)c2)c(C(F)F)n1 [Bixafen, bixafen] | 9 ± 2 mm | 15.8 ± 1.25 mm | 14.5 ± 1 mm | 20.2 ± 2.25 mm | 20.5 ± 1.75 mm | 27 ± 1 mm | 32 ± 2.5 mm | 32.8 ± 1.75 mm | 35.2 ± 1.4 mm | 38 ± 1 mm | solubility at 2 h ([1]; Table S4, 4nd batch, read-out: PBS solubility, pH 7.4, Incubation 1): 29 µM (≈ 12 µg/mL); solubility at 2 h ([1]; Table S4, 4nd batch, read-out: PBS solubility, pH 7.4, Incubation 2): 31 µM (≈ 12.8 µg/mL); solubility at 2 h ([1]; Table S4, 4nd batch, read-out: PBS solubility, pH 7.4, Mean): 30 µM (≈ 12.4 µg/mL); MIC ([2]; disk diffusion, small zones of inhibition with secondary mycelial growth, read-out: minimum inhibitory concentration): 4 µg/mL (≈ 9.66 µM); remaining at 40 min, 2 µM ([3]; human liver microsomes (pooled), pH 7.4, % Remaining without cofactor, no NADPH cofactor, Table S9, 4st batch): 101%; remaining at […], 2 µM ([3]; human liver microsomes (pooled), pH 7.4, % Remaining, Mean of 2, 7 min, Table S9, 4st batch): 105%; remaining at […], 2 µM ([3]; human liver microsomes (pooled), pH 7.4, % Remaining, Mean of 2, 15 min, Table S9, 4st batch): 97%; remaining at 25 min, 2 µM [3, 8]: 93%; remaining at 40 min, 2 µM [3, 8]: 87%; k el at 2 μM ([3]; human liver microsomes (pooled), pH 7.4, kel, Table S9, 4st batch, * approximate due to high stability): ~6.67e-05 s⁻¹; half-life at 2 µM ([3]; human liver microsomes (pooled), pH 7.4, t1/2, Table S9, 4st batch, * approximate due to high stability): ~161 min
2 | 35 µM (≈ 12.2 µg/mL) | 3.84E+03 | 3.81E+03 | 3.49E+03 | 29 µL/min/mg | 35 µM (≈ 12.2 µg/mL) | 34 µM (≈ 11.8 µg/mL) | 35 µM (≈ 12.2 µg/mL) | 116% | 88% | O=C(NC1CC2CC1(c1ccc(Cl)cc1)C2)c1cccnc1Cl (stereo not shown) [Compound 28] | 0 mm | 0 mm | 0 mm | 0 mm | 0 mm | 9 ± 0.5 mm | 7.5 ± 0.5 mm | 10.5 ± 1.5 mm | 13.8 ± 0.88 mm | 15.5 ± 0.5 mm | remaining at […], 2 µM [3, 14]: 82%; remaining at 25 min, 2 µM [3, 15]: 72%; remaining at 40 min, 2 µM [3, 15]: 61%; k el at 2 µM [3, 16]: 0.0002 s⁻¹; half-life at 2 µM [3, 17]: 57.6 min
3 | 4 µM (≈ 1.6 µg/mL) | 1.26E+04 | 1.38E+04 | 1.92E+04 |  | 4 µM (≈ 1.6 µg/mL) | 4 µM (≈ 1.6 µg/mL) | 4 µM (≈ 1.6 µg/mL) | 106% | 83% | Cn1cc(C(=O)NC2CC3CC2(c2ccc(Cl)c(Cl)c2)C3)c(C(F)F)n1 (stereo not shown) [Compound 29] | 0 mm | 0 mm | 0 mm | 3.5 ± 0.5 mm | 6.5 ± 1 mm | 8.75 ± 1.25 mm | 12 ± 0.5 mm | 12.5 ± 1.5 mm | 16.2 ± 1.25 mm | 23.5 ± 2 mm | microsomal CLint at 2 µM ([3]; liver microsomes (pooled), pH 7.4): 35 µL/min/mg; remaining at […], 2 µM [3, 14]: 73%; remaining at 25 min, 2 µM [3, 15]: 67%; remaining at 40 min, 2 µM [3, 15]: 54%; k el at 2 µM [3, 16]: 0.00025 s⁻¹; half-life at 2 µM [3, 17]: 47.4 min
